From US20230341377A1, “DISCONNECTION AGENTS” (DC Europa Limited, priority 2020, published 2023)

Key:
[1] = tested on: Hs578 cell line for human breast cancer, U373 cell line of human glioblastoma, and HepG2 hepatocellular carcinoma cells; assay: SMS assay (small molecule sharing), cell dye-sharing between cancer cells, cell lines pooled; type: cell-based; conditions: various doses that are not cytotoxic, in one or more cell lines
Description: The SMS assay was developed to assess the transfer of cell dye (for example the acetoxymethyl [AM]-based Calcein AM), between cancer cells. The SMS assay can be applied to any cell lines forming tumour networks such as tumour microtubes (TM) or tunneling nanotubes (TNT), which enable the transfer of molecules across cells. The SMS assay can be used to assess networking capabilities of any cancer cell lines including HepG2 hepatocellular carcinoma cells, Hs578T cell line for human breast cancer, and U373 cell line for human glioblastoma.
The SMS assay is illustrated in FIG. 1. For the SMS assay, two sets of cells are stained with the cell dye of choice and a customary cell tracker dye (for example cell tracker blue) using established staining techniques (steps 1 and 2). Each set of cells are then co-incubated with the compound of interest to assess its capabilities to modulate the cells small molecule sharing characteristics (step 3). Then the two sets of cells are combined on a plate, for example at a ratio of 1:1, and cultured in the presence of the compound of interest (Step 4).
Finally, live cells are evaluated for viability and analyzed by flow cytometry for the uptake of cell dye in the […] cells (Step 5). The comparison of cell tracker uptake against positive and negative control enables the assessment of the compound's ability to modulate the tumour networks including those formed by TM and TNTs
The SMS assay has been applied to assess the modulation of network sharing capabilities of Protein Kinase C Modulators (PKCm) at various concentrations in the Hs578 cell line for human breast cancer, U373 cell line of human glioblastoma, and HepG2 hepatocellular carcinoma cells. PBS vehicle was used as negative control and the PKCm PHORBOL 12-MYRISTATE 13-ACETATE (PMA) at a concentration of 5 nM was used as the positive control.
FIG. 2A and FIG. 2B show the percentage of cell tracker cells that were accepting the cell dye transfer from separately stained donor cells according to the SMS assay of Example. The percentage of acceptor cells detected is shown in comparison to vehicle (upper horizontal line) and PMA at 5-10 nM concentration (lower horizontal line). Active PKCm in the SMS assay (FIG. 2A) show a decrease in acceptor cells relative to vehicle at certain concentration. […] The upper limit of the tested concentrations was determined as the maximal non-cytotoxic dose.

[2] = tested on: patient-derived S24 glioblastoma model; assay: Example 4: orthotopic S24 glioblastoma in mouse brain, TPPB and radiotherapy, in vivo MPLSM imaging; set-up: species or system NMRI nude mice; conditions: for tumour burden / tumour connectivity: TPPB 3 doses i.p. days 13, 14, 15 at 200 μg/kg
Description: 8-10 weeks old male NMRI nude mice were used for all studies with human primary brain tumour cells. Cranial window implantation in mice was done in a modification of what has been previously described (see References), including a custom-made titanium ring for painless head fixation during imaging. 2-3 weeks after cranial window implantation, 30,000 tumour cells of the patient-derived S24 glioblastoma model were stereotactically injected into the mouse brain at a depth of 500 μm. Tumours were injected on day minus 35, i.e., 35 days before treatment start. Treatment was started on day 0.
Control animals (top row of FIG. 3) were untreated. TPPB continuous treatment (middle row) was administered intraperitoneally once per day on days 0 to 28 at variable daily doses ranging from 10 to 700 μg/kg. TPPB 3 doses (bottom row of FIG. 3) were administered intraperitoneally once per day on days 13, 14 and 15 at 200 μg/kg.
Tumours were irradiated with 7 Gy on three consecutive days (days 14, 15, 16, total dose 21 Gy) in regions matching in tumour cell density using a 6 MV linear accelerator with a 6 mm collimator (adjusted to the window size) at a dose rate of 3 Gy min^−1 (Faxitron MultiRad225). The used radiation schedule is in the range of the commonly prescribed 60 Gy in 2 Gy. fractions for malignant glioma patients, assuming an α/β of ˜10 in the linear quadratic model and taking into account the radiation time of 3 days.
MPLSM imaging was done with a Zeiss 7MP microscope (Zeiss) equipped with a Coherent Chameleon Ultrall laser (Coherent). MPLSM images were acquired by the ZEISS ZEN Software.
White to light gray areas of images in FIG. 3 depict S24 glioblastoma cells growing in the mouse brain. Black or dark gray areas depict vessels or background.

Question: With `CC(C)[C@H]1C(=O)N[C@H](CO)Cc2cc(NC(=O)/C=C/C=C/c3ccc(C(F)(F)F)cc3)ccc2N1C` [TPPB, (2E,4E)-N-[(2S,5S)-1,2,3,4,5,6-Hexahydro-5-(hydroxymethyl)-1-methyl-2-(1-methylethyl)-3-oxo-1,4-benzodiazocin-8-yl]-5-[4-(trifluoromethyl)phenyl]-2,4-pentadienamide] as the molecule, how does the “inhibition of cell dye-sharing in the SMS assay” value [1] read?
Answer: The value was “marked inhibition of cell dye-sharing”.

Question: What about the tumour burden ([2]; RTx 7 Gy days 14, 15, 16, day 28) of the same molecule?
Answer: Its tumour burden is “marked tumour regression”.

Question: What about the tumour connectivity ([2]; RTx, day 28) of the same molecule?
Answer: Its tumour connectivity is “markedly reduced”.

Question: What about the tumour burden ([2]; RTx, days 35 and 42) of the same molecule?
Answer: The tumour burden was “complete remission from the tumour burden”.

Question: And the tumour connectivity ([2]; RTx, days 35 and 42)?
Answer: The tumour connectivity was “completely disconnected”.

Question: What about the “tumour burden and connectivity versus control” value ([2]; TPPB continuous i.p. once per day days 0 to 28, 10 to 700 μg/kg, RTx 7 Gy days 14, 15, 16, days 0 to 35) of the same molecule?
Answer: Its value is “no effect against control”.
